Several values for one entry are separate records, joined by “and”; a condition that tells them apart may be missing. Equal values may be shown once.
Key:
[1] = tested on: hrpL promoter; experiment: GFP reporter plasmid phrpL, flow cytometry of hrpL promoter activity; type: cell-based, Dickeya dadantii 3937; conditions: for GFP Mean Fluorescence Intensity, hrpL promoter: MM + 0.1 mM compound; for mean fluorescence intensity of GFP, hrpL promoter: 3937 (phrpL), MM + 100 μM
Procedure: (§1) FACS analysis of promoter activity of dspE, hrpA, hrpL, hrpN, and hrpS was carried out as described (Peng et al., 2006). Briefly, the wild-type Ech3937 and the mutant strains carrying the promoter reporter plasmid were grown on LB broth at 28° C. overnight and transferred to appropriate media. For FACS analysis, samples were collected by centrifugation, washed with 1× phosphate buffer saline (PBS) at 13,000 rpm for 1 min, and re-suspended in 1×PBS to ca 10^6 CFU/ml prior to being run in a FACS Calibur flow cytometer (BD Biosciences, CA). Three replicates were performed for each treatment.

[2] = tested on: pPROBE-AT vector without promoter insert; experiment: pPROBE-AT vector control, flow cytometry; type: cell-based, Dickeya dadantii 3937; conditions: for GFP Mean Fluorescence Intensity, vector control: Ech3937 (pPROBE-AT), MM + 0.1 mM compound; for mean fluorescence intensity of GFP, vector control: 3937 (pPROBE-AT), MM + 100 μM
Procedure: as §1

[3] = tested on: hrpN promoter (T3SS); experiment: GFP reporter plasmid phrpN, flow cytometry of hrpN promoter activity; type: cell-based, Dickeya dadantii 3937; conditions: for hrpN expression in Ech3937 and hrpX, hrpY, hrpS mutants, in words: 0.1 mM, 12 h (FIG. 5); for GFP Mean Fluorescence Intensity, hrpN promoter: MM + 0.1 mM compound; for mean fluorescence intensity of GFP, hrpN promoter: 3937 (phrpN), MM + 100 μM
Procedure: as §1
(§2) Phenolic compounds constitute an important class of organic substances produced by plants. The phenolic compound SA is a signaling molecule that plays a role in host defenses. OCA and TCA are the biosynthetic precursors of SA and are also reported to induce the expression of defense-related genes in plants. OCA, TCA, and SA were examined to elucidate their effects on the expression of T3SS genes. The expression of the T3SS gene hrpN was examined in MM and MM supplemented with OCA, TCA, and SA, at concentrations of 0.05, 0.1, and 0.2 mM, respectively. FIGS. 2A and 2B show the promoter activities of hrpN in Dickeya dadantii 3937 (Ech3937) grown in MM and MM supplemented with 0.05, 0.1, and 0.2 mM OCA, TCA, and SA at 12 h (FIG. 2A) and 24 h (FIG. 2B) post-inoculation. GFP intensity was determined on gated populations of bacterial cells by flow cytometry and analyzed with the Cell Quest software (BD Biosciences, San Jose, Calif.). The growth of Ech3937 in MM supplemented with different concentrations of OCA, TCA and SA was recorded. Compared with MM alone, the average GFP fluorescence intensity of bacterial cells of Ech3937 (phrpN) was increased approximately 4-fold when 0.05 mM of OCA and TCA were added to the medium (FIGS. 2A, 2B).

[4] = tested on: rsmB RNA; experiment: qRT-PCR relative mRNA level of rsmB; type: cell-based, Dickeya dadantii 3937; conditions: Ech3937 in MM supplemented with compound
Procedure: Bacterial strains were grown in MM. Total RNA from the bacterial cells was isolated by using the TRI reagent method (Sigma, Mo.) and treated with Turbo DNA-free DNase kits (Ambion, Tex.) as described (Peng et al., 2006). An iScript cDNA Synthesis Kit (Bio-Rad, CA) was used to synthesize cDNA from 0.5 μg of treated total RNA. The Real Master Mix (Eppendorf, Westbury, N.Y.) was used for qRT-PCR reaction to quantify the cDNA level of target genes in different samples. The rplU was used as the endogenous control for data analysis. qRT-PCR data were analyzed using Relative Expression Software Tool as described (Pfaffl, M. W., Horgan, G. W., and Dempfle, L. (2002) Relative expression software tool (REST) for group-wise comparison and statistical analysis of relative expression results in real-time PCR. Nucleic Acids Res 30:e36.).

[5] = tested on: hrpA promoter (T3SS); experiment: GFP reporter plasmid phrpA, flow cytometry (FACS) of hrpA promoter activity; type: cell-based, Dickeya dadantii 3937; conditions: for change of average GFP fluorescence intensity of Ech3937 (phrpA) vs MM alone, in words: 0.1 mM; for GFP Mean Fluorescence Intensity, hrpA promoter: MM + 0.1 mM compound
Method in brief: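 D. dadantii (Ech) 3937 carrying the phrpA promoter–GFP transcriptional fusion was grown in T3SS minimal medium with 100 μM compound, starting from an inoculum of OD600 1.0. GFP was read by flow cytometry at 12 and 24 h. Values are mean fluorescence intensity of three replicates ± SD, with compound-free MM as control.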

[6] = tested on: Dickeya dadantii 3937 (Ech3937); experiment: Bacterial growth in MM supplemented with compound; type: cell-based; conditions: compound added into the MM
Excerpt: as §2
The expression of the T3SS gene hrpA was further examined in MM and MM supplemented with PCA at concentrations of 0.001, 0.005, 0.01, 0.05 and 0.1 mM respectively. FIGS. 16A and 16B show the promoter activities of hrpA in Dickeya dadantii 3937 (Ech3937) grown in minimum medium (MM) and MM supplemented with different amount of p-coumaric acid (PCA) at 12 h (FIG. 16A) and 24 h (FIG. 16B) post-inoculation. GFP intensity was determined on gated populations of bacterial cells by flow cytometry and analyzed with the Cell Quest software (BD Biosciences, San Jose, Calif.). The growth of Ech3937 in MM supplemented with different concentrations of PCA was recorded. Compared with MM alone, the average GFP fluorescence intensity of bacterial cells of Ech3937 (phrpA) was reduced more than 4-fold when 0.05 and 0.1 mM of PCA were added to the medium (FIGS. 16A, 16B).

[7] = hrpL mutant WPP96 (phrpN), 12 h
[8] = hrpL mutant WPP96 (phrpA), 12 h

## O=C(O)/C=C/c1ccccc1 [Compound 001, trans-cinnamic acid]
[1]; Ech3937 (phrpL), 12 h
  GFP Mean Fluorescence Intensity, hrpL promoter: 19 ± 1
[1]; hrpL mutant WPP96 (phrpL), 12 h
  GFP Mean Fluorescence Intensity, hrpL promoter: 331 ± 27
[2]; 12 h
  GFP Mean Fluorescence Intensity, vector control: 1.9 ± 0
[3]; 0.05 mM compound, 12 h and 24 h (FIGS. 2A, 2B)
  increase of average GFP fluorescence intensity of Ech3937 (phrpN) compared with MM alone: approximately 4 fold
[3]
  hrpN expression in Ech3937 and hrpX, hrpY, hrpS mutants, in words: induced the expression of hrpN in Ech3937, but not in hrpX, hrpY, and hrpS mutants
[3]; Ech3937 (phrpN), 12 h
  GFP Mean Fluorescence Intensity, hrpN promoter: 103 ± 1
[3]; MM + 0.2 μM compound, 12 h
  GFP Intensity of Ech3937 (phrpN): 65.1 ± 6.8
[3]; MM + 0.2 μM compound, 24 h
  GFP Intensity of Ech3937 (phrpN): 163 ± 25
[3]; MM + 0.5 μM compound, 12 h
  GFP Intensity of Ech3937 (phrpN): 73.4 ± 4.2
[3]; MM + 0.5 μM compound, 24 h
  GFP Intensity of Ech3937 (phrpN): 158 ± 20
[3]; MM + 5 μM compound, 12 h
  GFP Intensity of Ech3937 (phrpN): 134 ± 5.6
[3]; MM + 5 μM compound, 24 h
  GFP Intensity of Ech3937 (phrpN): 266 ± 14
[3]; MM + 10 μM compound, 12 h
  GFP Intensity of Ech3937 (phrpN): 147 ± 18
[3]; MM + 10 μM compound, 24 h
  GFP Intensity of Ech3937 (phrpN): 284 ± 12
[3]; [7]
  GFP Mean Fluorescence Intensity, hrpN promoter: 3.3 ± 0
[4]
  rsmB mRNA relative expression ratio (MM alone normalized to 1): 1.58
[5]; 12 h
  change of average GFP fluorescence intensity of Ech3937 (phrpA) vs MM alone, in words: doubled
[5]; Ech3937 (phrpA), 6 h
  GFP Mean Fluorescence Intensity, hrpA promoter: 22.3 ± 2.1
[5]; Ech3937 (phrpA), 24 h
  GFP Mean Fluorescence Intensity, hrpA promoter: 203.7 ± 16.1
[5]; [8]
  GFP Mean Fluorescence Intensity, hrpA promoter: 6.2 ± 0.6
[6]
  effect on bacterial growth of Ech3937 in MM, in words: No reduction of bacterial growth

## O=C(O)/C=C/c1ccccc1O [Compound 006, Ortho-coumaric acid]
[1]; Ech3937 (phrpL), 12 h
  GFP Mean Fluorescence Intensity, hrpL promoter: 19 ± 0
[2]; 6 h
  GFP Mean Fluorescence Intensity, vector control: 2.0 ± 0
[2]; 12 h
  GFP Mean Fluorescence Intensity, vector control: 2.0 ± 0
[2]; 24 h
  GFP Mean Fluorescence Intensity, vector control: 1.9 ± 0
[3]
  hrpN expression in Ech3937 and hrpX, hrpY, hrpS mutants, in words: induced the expression of hrpN in Ech3937, but not in hrpX, hrpY, and hrpS mutants
[3]; Ech3937 (phrpN), 6 h
  GFP Mean Fluorescence Intensity, hrpN promoter: 31 ± 3
[3]; Ech3937 (phrpN), 12 h, listed as OCA
  GFP Mean Fluorescence Intensity, hrpN promoter: 94 ± 3 and 91 ± 8
[3]; Ech3937 (phrpN), 24 h
  GFP Mean Fluorescence Intensity, hrpN promoter: 78 ± 8
[3]; [7]
  GFP Mean Fluorescence Intensity, hrpN promoter: 3.3 ± 0.1
[3]; iaaM mutant Ech138 (phrpN), 6 h
  GFP Mean Fluorescence Intensity, hrpN promoter: 9.1 ± 1.6
[3]; iaaM mutant Ech138 (phrpN), 12 h
  GFP Mean Fluorescence Intensity, hrpN promoter: 33 ± 5
[3]; iaaM mutant Ech138 (phrpN), 24 h
  GFP Mean Fluorescence Intensity, hrpN promoter: 39 ± 5
[4]
  rsmB mRNA relative expression ratio (MM alone normalized to 1): 1.4
[5]; 12 h
  change of average GFP fluorescence intensity of Ech3937 (phrpA) vs MM alone, in words: doubled
[5]; Ech3937 (phrpA), 12 h, listed as OCA
  GFP Mean Fluorescence Intensity, hrpA promoter: 82 ± 1
[5]; Ech-Rif (phrpA), 6 h
  GFP Mean Fluorescence Intensity, hrpA promoter: 18 ± 0
[5]; Ech-Rif (phrpA), 12 h
  GFP Mean Fluorescence Intensity, hrpA promoter: 51 ± 2
[5]; Ech-Rif (phrpA), 24 h
  GFP Mean Fluorescence Intensity, hrpA promoter: 49 ± 1
[5]; gacA mutant Ech137 (phrpA), 6 h
  GFP Mean Fluorescence Intensity, hrpA promoter: 4.9 ± 0.1
[5]; gacA mutant Ech137 (phrpA), 12 h
  GFP Mean Fluorescence Intensity, hrpA promoter: 5.9 ± 0.1
[5]; gacA mutant Ech137 (phrpA), 24 h
  GFP Mean Fluorescence Intensity, hrpA promoter: 8.3 ± 0
[5]; [8]
  GFP Mean Fluorescence Intensity, hrpA promoter: 6.5 ± 0.2
[6]
  effect on bacterial growth of Ech3937 in MM, in words: No reduction of bacterial growth

## O=C(/C=C/c1ccc(O)cc1)NO [Compound 103, trans-4-Hydroxycinnamohydroxamic acid]
[1]; 12 h
  mean fluorescence intensity of GFP, hrpL promoter: 7.6 ± 0.2
[1]; 24 h
  mean fluorescence intensity of GFP, hrpL promoter: 7.7 ± 0.2
[2]; 12 h
  mean fluorescence intensity of GFP, vector control: 3.0 ± 0.6
[2]; 24 h
  mean fluorescence intensity of GFP, vector control: 4.3 ± 0.6
[3]; 12 h
  mean fluorescence intensity of GFP, hrpN promoter: 5.8 ± 0.7
[3]; 24 h
  mean fluorescence intensity of GFP, hrpN promoter: 5.4 ± 0.3
[5]; 10 μM added to the medium
  reduction of hrpA expression: approximately 4 fold
[5]; D. dadantii 3937, reporter plasmid phrpA, 100 μM
  inhibitory activity on T3SS gene (hrpA) expression, in words: showed inhibitory effect
[5]; Dickeya dadantii, read-out: minimal inhibitory concentration on hrpA expression (concentration showing inhibitory effect)
  minimal effective concentration: 10 µM
[5]; Trial 1, MM supplemented with compound at 100 μM
  Mean Fluorescence Intensity of GFP (hrpA, phrpA): 9.3 ± 0.3
